Data from paper doi:10.1101/2024.12.24.629646v1 (biorxiv, 2024).

Target: mGlu5 WT (Homo sapiens, UniProt P41594)
Experiment: cell-based
Design: species or system HEK293

Sequence of mGlu5 WT (P41594 whole entry): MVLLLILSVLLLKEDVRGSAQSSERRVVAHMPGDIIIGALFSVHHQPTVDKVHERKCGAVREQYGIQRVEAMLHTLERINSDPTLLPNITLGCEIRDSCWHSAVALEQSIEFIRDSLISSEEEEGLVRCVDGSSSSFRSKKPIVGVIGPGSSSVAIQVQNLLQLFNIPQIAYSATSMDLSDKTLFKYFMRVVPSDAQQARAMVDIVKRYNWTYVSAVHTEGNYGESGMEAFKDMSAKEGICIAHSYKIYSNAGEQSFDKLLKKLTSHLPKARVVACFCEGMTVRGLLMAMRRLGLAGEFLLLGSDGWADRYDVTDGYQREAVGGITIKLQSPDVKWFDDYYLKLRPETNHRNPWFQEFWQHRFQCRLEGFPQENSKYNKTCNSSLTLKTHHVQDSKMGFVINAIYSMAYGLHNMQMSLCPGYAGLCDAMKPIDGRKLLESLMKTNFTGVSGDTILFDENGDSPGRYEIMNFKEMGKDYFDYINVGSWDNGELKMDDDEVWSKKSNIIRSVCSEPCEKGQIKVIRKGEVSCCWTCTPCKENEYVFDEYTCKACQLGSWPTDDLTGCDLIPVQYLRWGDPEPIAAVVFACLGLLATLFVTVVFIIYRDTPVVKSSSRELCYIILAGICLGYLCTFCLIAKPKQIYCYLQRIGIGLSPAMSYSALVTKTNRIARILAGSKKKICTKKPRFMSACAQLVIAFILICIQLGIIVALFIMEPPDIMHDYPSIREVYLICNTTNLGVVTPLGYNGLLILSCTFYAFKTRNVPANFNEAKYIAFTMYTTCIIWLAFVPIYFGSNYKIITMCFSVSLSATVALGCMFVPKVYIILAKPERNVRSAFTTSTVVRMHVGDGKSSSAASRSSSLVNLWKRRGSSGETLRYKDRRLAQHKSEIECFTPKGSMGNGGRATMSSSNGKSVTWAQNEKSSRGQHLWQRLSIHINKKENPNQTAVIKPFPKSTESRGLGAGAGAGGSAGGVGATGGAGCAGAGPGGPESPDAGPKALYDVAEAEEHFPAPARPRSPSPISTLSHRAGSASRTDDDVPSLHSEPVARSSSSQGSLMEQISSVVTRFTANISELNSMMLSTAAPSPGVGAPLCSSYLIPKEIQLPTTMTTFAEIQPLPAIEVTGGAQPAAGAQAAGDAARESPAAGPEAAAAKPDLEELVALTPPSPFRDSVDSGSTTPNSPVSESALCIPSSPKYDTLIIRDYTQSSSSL

| Compound | EC50 [nM] |
| --- | --- |
| C[C@@H](NC(=O)c1ccc(C#Cc2cccc(F)c2)cn1)C(C)(C)O [compound 1, VU0424465] | 5.25 |
| C[C@@H](NC(=O)c1ccc(/N=N/c2cccc(F)c2)cn1)C(C)(C)O [compound 2, (R,E)-5-((3-fluorophenyl)diazenyl)-N-(3-hydroxy-3-methylbutan-2-yl)picolinamide] | 1170 |
